Assay results taken from article PMC9143043, “Synthesis and Biological Evaluation of 5′-O-Fatty Acyl Ester Derivatives of 3′-Fluoro-2′,3′-dideoxythymidine as Potential Anti-HIV Microbicides” (Molecules, 2022).

Key:
[1] = Log D by liquid-liquid distribution chromatography; format: physicochemical; details: octanol-coated column with octanol-saturated mobile phases, pH 7.4
Procedure: Physicochemical properties including pKa, Log D, and solubility were determined for 5 (as a model compound). […] It was not possible to measure the partition coefficient (Log P) of the fatty acyl derivatives of FLT and AZT in a standard n-octanol/water mixture because of the insolubility of the compounds in water. The cLog P value was calculated as 5.23 using ChemDraw. […] Since most of 5 is in its neutral form, the Log D value will correspond to the Log P value.
The Log P of 5 was initially investigated by the pH-metric (potentiometric) method. The sample was titrated in three triple titrations from pH 2.5 to pH 11.9 at concentrations of 0.7–1.1 mM in various ratios of octanol/water. The results indicated high sample lipophilicity, although the Log P could not be determined due to the apparent pKa in octanol shifting out of the measurable range. Therefore, the Log D of 5 at pH 7.4 was measured as 5.04 using liquid–liquid distribution chromatography. The Profiler LDA is an isocratic chromatography system that uses an octanol-coated column with octanol saturated mobile phases adjusted to pH 7.4. […]

HIV-1 = assay: Anti-HIV activity overall (cell-free and cell-associated assays) and antiviral index; format: cell-based
Description: Table 2, Table 3 and Table 4 illustrate the anti-HIV-1 activities against the cell-free, cell-associated, and multidrug-resistant virus and sperm inhibiting properties of the selected compounds. In summary, the anti-HIV activity of 5′-substituted derivatives of FLT and AZT (5–18) was dependent on the nature of the 5′-substituent. […] None of the other esters were active against cell-associated virus. […] The difference in the activity of fatty acyl derivatives of FLT compared to each other and FLT may be due to their differences in the rate of uptake and intracellular hydrolysis.
By design, the ester moiety in the conjugates needs to be hydrolyzed to render parent nucleosides and fatty acids to produce anti-HIV activity. The anti-HIV activities of 5′-O-ether substituted FLT and AZT (3 and 4, Scheme 2) with a stable tetradecanyl (myristyl) group were compared with hydrolyzable 5′-O-ester substituted FLT and AZT (6 and 7).
Anti-HIV activities of the compounds were evaluated according to the previously reported procedure. In summary, the HeLa (Human cervical carcinoma: ATCC CCL-2.1) cell line was used to measure the inactivation of both the cell-free virus preparations and virus-infected cell preparations. The cells were plated in culture plates 24 h prior to each experiment. Cell-free viral preparations of HIV-1 strains IIIB (lymphocytotropic strain) and BaL (monocytotropic strain) were used for the cell-free assay. For the cell-associated assay, the SulT1 cells were infected with IIIB virus 5 days prior to the experiment. Cell-free virus and virus-infected cells were mixed with different compounds and diluted to make different concentrations. The mixture was further diluted with the buffer and added to the HeLa cells.

[2] = tested on: human vaginal cells (VK-2/E6E7); assay: Vaginal cell cytotoxicity (MTS assay); format: cell-based; details: 6 h incubation; 31-1000 µg/mL
Procedure: A commercially used spermicidal agent (N-9) and conjugate cytotoxicity was evaluated using immortalized human vaginal cells (VK-2/E6E7). […] Observed cytotoxicity from N-9 could be correlated with the generation of higher levels of cytokines by N-9.
(§1) Human T lymphoblastoid cells (CCRF-CEM, ATCC No. CCL-119) were grown to 70% confluency in a culture medium. CCRF-CEM cells were incubated with 10 µM of the compounds and mixed with trypan blue (0.1%) to color the dead cells. The percentage of viability was calculated by using a Cellometer Auto T.4 (Nexcelom Bioscience). The cell viability against the vaginal cells (VK-2/E6E7) was conducted according to the previously reported procedure. The effect of conjugates on the sperm viability and mobility was evaluated as described previously.
Figure 2 (A) Dose–response curves of the vaginal cytotoxicity in VK-2 cells (MTS assay) for 5, 6, 8, and N-9 after 6 h incubations. (B) Proinflammatory cytokine (IL-1α) production in the VK-2 cells (ELISA) after a 6 h incubation in the presence of 5, 6, 8, and N-9.

[3] = tested on: HIV-1 98USMSC5016 (C-Wild Type); assay: PBMC multi-round infection assay, clinical isolate 98USMSC5016; format: cell-based; details: Human immunodeficiency virus 1
Procedure: Based on a preliminary screening, conjugates 5 and 8 were evaluated for their ability to inhibit a drug-resistant virus in a peripheral blood mononuclear cell (PBMC) assay. In this assay, FLT, 5, and 8 were tested against B- and C-wild type and A-17 and 4755–5 multidrug-resistant (MDR) clinical isolates of HIV-1, where compounds were incubated with PBMCs for 6 h and then washed off before the addition of the virus and further culture for 7 days.
For the assessment of compounds against the wild type (WT; R5; clones = 94US3393IN [B subtype] and 98USMSC5016 [C subtype]) and drug-resistant (clones = 4755−5 and A17) HIV-1 clinical isolates, PHA-P stimulated cells from at least two normal donors were pooled, diluted in fresh media, and plated in the interior wells of a 96-well round-bottom microplate. Pooling PBMCs from more than one donor was used to minimize the variability observed between the individual donors, which results from the quantitative and qualitative differences in HIV infection and overall response to the PHA and IL-2 of primary lymphocyte populations. Each plate contained virus/cell control wells (cells + virus), experimental wells (drug + cells + virus), and compound control wells (drug + media, no cells, necessary for MTS monitoring of cytotoxicity). Test drug dilutions were prepared in microtiter tubes, and each concentration was placed in appropriate wells. Following the addition of the drug dilutions to the PBMCs, a predetermined dilution of virus stock was then placed in each test well (final MOI ≅ 0.1). Because HIV-1 is not cytopathic to PBMCs, the same assay plate can be used for both the antiviral efficacy and cytotoxicity measurements. Compounds were incubated with virus and cells in a 96-well format for 6 h. The cells were then washed by removing 75% of the medium (150 μL) and replacing it with 150 μL of fresh (no drug) medium. The plates were then centrifuged (∼200 g) for 10 min, after which 150 μL of the medium was removed, and an additional 150 μL of fresh medium was added to each well and further incubated for 6 days or until peak reverse transcriptase (RT) activity was detected. A microtiter plate-based RT reaction was utilized. Incorporated radioactivity (counts per minute, CPM) was quantified using standard liquid scintillation techniques. Compound IC50 (50%, inhibition of virus replication) was calculated using statistical software and regression analysis. A cellular uptake study was conducted for fluorescence conjugates 23 and 24 using a previously published procedure with minor modifications. All of the experiments were conducted in triplicate.

sperm = assay: Spermicidal activity (sperm viability and motility); format: cell-based; details: abstract; versus N-9 positive control
Procedure: In this study, several fatty acyl conjugates of nucleosides (5–8, 10–12, 15, and 16) were tested for their spermicidal activities. […] Detailed data analysis is available in the Supplementary Materials (Figure S2).
as §1

**Q.** With Cc1cn([C@H]2C[C@H](F)[C@@H](COC(=O)CCCCCCCCCCCN=[N+]=[N-])O2)c(=O)[nH]c1=O [Compound 5, 3′-fluoro-2′,3′-dideoxy-5′-O-(12-azidododecanoyl)thymidine] as the compound, how does the chromatographic logD [1] read?
**A.** 5.04

**Q.** And the “anti-HIV activity (in words)” value (HIV-1)?
**A.** significant anti-HIV activity at noncytotoxic concentrations

**Q.** And the “antiviral index, times better than AZT” value (HIV-1; versus AZT)?
**A.** > 30 times

**Q.** And the “antiviral index, times better than FLT” value (HIV-1; versus FLT)?
**A.** > 4 times

**Q.** What about the “cytotoxicity to vaginal cells” value [2] of the same compound?
**A.** did not show significant cytotoxic effects

**Q.** And the IC50 [3]?
**A.** 2.1 nM

**Q.** What about the IC90 [3] of the same compound?
**A.** 8.6 nM

**Q.** And the “effect on sperm viability” value (sperm)?
**A.** did not alter vaginal cell and sperm viability
